target: Alkaline phosphatase, placental type (Homo sapiens, UniProt P05187); experiment: inhibition of placental alkaline phosphatase – biochemical, uHTS hits, luminescence, selectivity assay for human IAP inhibitor project, dose response (AID 488892)
Sequence (P05187 whole entry, looked up): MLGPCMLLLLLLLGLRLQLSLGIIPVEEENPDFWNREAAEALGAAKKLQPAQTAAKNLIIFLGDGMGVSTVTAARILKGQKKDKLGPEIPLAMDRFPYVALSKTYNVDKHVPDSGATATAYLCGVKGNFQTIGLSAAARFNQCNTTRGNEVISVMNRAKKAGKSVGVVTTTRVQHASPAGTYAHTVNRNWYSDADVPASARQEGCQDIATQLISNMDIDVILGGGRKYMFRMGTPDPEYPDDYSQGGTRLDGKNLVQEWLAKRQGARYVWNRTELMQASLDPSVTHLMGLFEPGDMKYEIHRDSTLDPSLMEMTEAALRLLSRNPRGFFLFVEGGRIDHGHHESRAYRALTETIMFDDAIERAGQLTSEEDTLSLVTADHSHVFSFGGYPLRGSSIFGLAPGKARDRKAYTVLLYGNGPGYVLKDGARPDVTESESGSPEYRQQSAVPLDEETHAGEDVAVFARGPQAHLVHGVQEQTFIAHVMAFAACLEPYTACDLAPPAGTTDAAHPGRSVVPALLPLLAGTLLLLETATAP

| SMILES | IC50 [µM] |
| --- | --- |
| CC(N=Nc1ccccc1[N+](=O)[O-])c1ccc([N+](=O)[O-])cc1 (stereo not drawn) | > 100 |
| CCOC1=CC(=Cc2c(C)[nH]oc2=O)C=C(Br)C1=O [4-[(Z)-(3-bromo-5-ethoxy-4-oxo-1-cyclohexa-2,5-dienylidene)methyl]-3-methyl-2H-isoxazol-5-one] | 35.1 |
| C=c1[nH]n(Cc2ccccc2)c(=O)c1=Cc1ccc(N(C)C)cc1 [(4Z)-4-[[4-(dimethylamino)phenyl]methylidene]-5-methyl-2-(phenylmethyl)-3-pyrazolone] | 37.8 |
